Data reported in ChEMBL document CHEMBL1777769, “Synthesis and characterisation of a novel tubulin-directed DO3A-colchicine conjugate with potential theranostic features” (Bioorg Med Chem Lett, 2011).
Calls of active or inactive are those of the source. No cut-off for these calls is given here.

Columns and labels:
Assay type in all cases: functional, cell-based
OVCAR-3 [1] = experiment: Cytotoxicity against human OVCAR3 cells assessed as reduction in viable cells after 24 hrs by trypan blue exclusion assay
OVCAR-3 [2] = experiment: Cytotoxicity against human OVCAR3 cells assessed as change in cell shape after 24 hrs by trypan blue exclusion assay
OVCAR-3 [3] = experiment: Cytotoxicity against human OVCAR3 cells assessed as cell death after 24 hrs by trypan blue exclusion assay

Compound	Activity (OVCAR-3 [1])	Activity (OVCAR-3 [2])	Activity (OVCAR-3 [3])
COc1cc2c(c(OC)c1OC)-c1ccc(OC)c(=O)cc1[C@@H](NC(C)=O)CC2	Active	Active	Active
COc1cc2c(c(OC)c1OC)-c1ccc(OC)c(=O)cc1[C@@H](NC(=O)CN1CCN(CC(=O)O)CCN(CC(=O)O)CCN(CC(=O)O)CC1)CC2	–	Active	Active
